# Test results taken from patent US5750516A, “Phosphoric diester” (Senju Pharmaceutical Co., Ltd., priority 1995, dated 1998).
# Legend:
# [1] = system: lipid peroxidation in rat brain homogenate; assay: Autooxidation (lipid peroxidation) of the rat brain homogenate, MDA by TBA method; assay type: biochemical, Rats of Wistar strain; details: for Inhibition (%) of lipid peroxidation in rat brain homogenate: 37° C., 30 minutes, pH 7.4
# Method: Rats of Wistar strain (male, 11 weeks old) were used. The animal was decapitated and the brain was enucleated and homogenized in 4 ml/gram of 50 mM phosphate-buffered saline (pH 7.4). The homogenate was centrifuged (1000 g, 10 min.) and the supernatant was harvested. The test solution was set to 10^-7 -10^-4 M (dissolved at a final ethanol concentration of 1%). To 100 μl of the test solution was added 200 μl of the brain homogenate as well as 700 μl of phosphate-buffered saline and the mixture was incubated at 37° C. for 30 minutes for lipid peroxidation. The reaction was stopped with 200 μl of 35% perchloric acid and centrifuged (1300 g, 10 min.) and the MDA (malondialdehyde) value of the supernatant was determined by the TBA (thiobarbituric acid) method.
# [2] = DPPH (1,1-Diphenyl-2-picrylhydrazyl) radical scavenging action; assay type: biochemical; details: for Inhibition (%) (scavenging effect on DPPH radical): 20 minutes, 517 nm
# Method: To 2.7 ml of 0.11 mM-DPPH/ethanol was added 300 μl of the test solution and the mixture was stirred and allowed to stand for 20 minutes. Then, the absorbance was measured at 517 nm. The radical scavenging effect (%) of each test solution was calculated by means of the following equation. [formula]
smiles,measurement,setting,value
"Cc1c(C)c2c(c(C)c1OP(=O)([O-])O[C@@H](CO)[C@H]1OC(=O)C(O)=C1O)CCC(C)(CCCC(C)CCCC(C)CCCC(C)C)O2.[K+] (stereo partly drawn) [the present compound, L-ascorbic acid 5-[3,4-dihydro-2,5,7,8-tetramethyl-2-(4,8,12-trimethyltridecyl)-2H-1-benzopyran-6-yl hydrogen phosphate] potassium]",Inhibition (%) of lipid peroxidation in rat brain homogenate,[1]; 10^-4 M,98.5%
same,Inhibition (%) of lipid peroxidation in rat brain homogenate,[1]; 10^-5 M,98.7%
same,Inhibition (%) of lipid peroxidation in rat brain homogenate,[1]; 10^-6 M,93.3%
same,inhibition of autooxidation of the rat brain homogenate (in words),[1]; 10^-7 -10^-4 M,inhibits autooxidation of the rat brain homogenate to a remarkable extent
same,Inhibition (%) of lipid peroxidation in rat brain homogenate,[1]; 10^-7 M,24.7%
same,Inhibition (%) (scavenging effect on DPPH radical),[2]; 5 × 10^-5 M,71.7%
same,Inhibition (%) (scavenging effect on DPPH radical),[2]; 10^-3 M,96.7%
same,Inhibition (%) (scavenging effect on DPPH radical),[2]; 10^-4 M,97.3%
same,Inhibition (%) (scavenging effect on DPPH radical),[2]; 10^-5 M,13.1%
same,scavenging of DPPH radicals (in words),[2]; 10^-5 to 10^-3 M,scavenges DPPH radicals to a remarkable extent
